Assay results from the NIST ThermoML archive (doi:10.1016/j.fluid.2014.05.033).
“And” between values parts separate entries of the source, which are not always exact repeats. Equal values may be shown once.

Assays:
[1] = refractive index (Na D-line) (dimensionless); details: 101.33 kPa, Liquid, Standard Abbe refractometry
[2] = for kinematic viscosity / mass density: 101.33 kPa, Liquid; for kinematic viscosity: Capillary tube (Ostwald / Ubbelohde) method; for mass density: Vibrating tube method; for Normal melting temperature: Crystal, visual observation

CO [methanol]
Details	kinematic viscosity, [2] [m2/s]	mass density, [2]	refractive index, [1]
288.15 K	7.51e-07	796.5 kg/m3	1.3306
293.15 K	7.03e-07	791.46 kg/m3	1.3285
298.15 K	6.6e-07	786.59 kg/m3 and 786.69 kg/m3	1.3265
303.15 K	6.21e-07	782.03 kg/m3	1.3245
308.15 K	5.79e-07	777.29 kg/m3	1.3227
313.15 K	5.49e-07	772.51 kg/m3	1.3208
318.15 K	5.19e-07	767.69 kg/m3	1.3188

Details	Normal melting temperature [°C]
[2]	-98.00

COc1ccccc1 [anisole]
Details	kinematic viscosity, [2] [m2/s]	mass density, [2]	refractive index, [1]
288.15 K	1.123e-06	996.56 kg/m3	1.5198
293.15 K	1.041e-06	991.95 kg/m3	1.5169
298.15 K	9.71e-07	989.42 kg/m3 and 989.09 kg/m3	1.5143
303.15 K	8.99e-07	983.04 kg/m3	1.5117
308.15 K	8.39e-07	978.34 kg/m3	1.5092
313.15 K	7.89e-07	973.62 kg/m3	1.5063
318.15 K	7.4e-07	969.99 kg/m3	1.5041

COC(=O)Oc1ccccc1 [methyl phenyl carbonate]
Details	kinematic viscosity, [2] [m2/s]	mass density, [2]	refractive index, [1]
288.15 K	5.143e-06	1153.93 kg/m3	1.4991
293.15 K	4.275e-06	1148.74 kg/m3	1.4965
298.15 K	3.665e-06	1143.24 kg/m3 and 1143.63 kg/m3	1.4942
303.15 K	3.196e-06	1138.41 kg/m3	1.492
308.15 K	2.816e-06	1133.26 kg/m3	1.4896
313.15 K	2.486e-06	1128.11 kg/m3	1.4873
318.15 K	2.235e-06	1122.97 kg/m3	1.4853

Details	Normal melting temperature [°C]
[2]	-31.00

Oc1ccccc1 [phenol]
Details	mass density [kg/m3]
[2], 313.15 K	1058.51

Details	Normal melting temperature [°C]
[2]	40.90

COC(=O)OC [dimethyl carbonate]
Details	kinematic viscosity, [2] [m2/s]	mass density, [2] [kg/m3]	refractive index, [1]
288.15 K	6.05e-07	1077.16	1.371
293.15 K	5.7e-07	1070.18	1.3688
298.15 K	5.41e-07	1063.26	1.3664
303.15 K	5.08e-07	1056.23	1.364
308.15 K	4.76e-07	1049.85	1.3618
313.15 K	4.56e-07	1043.04	1.3595
318.15 K	4.33e-07	1036.51	1.357

Details	Normal melting temperature [°C]
[2]	5.01

O=C(Oc1ccccc1)Oc1ccccc1 [diphenyl carbonate]
Details	mass density [kg/m3]
[2], 358.15 K	1113.12

Details	Normal melting temperature
[2]	80.81 °C and 81.81 °C
